2 compounds from article PMC5867665, “Targeting Multiple Effector Pathways in Pancreatic Ductal Adenocarcinoma with a G-Quadruplex-Binding Small Molecule” (Journal of Medicinal Chemistry, 2018) can be followed below.

In this data set the test system is MIA PaCa-2 pancreatic tumor xenograft. In words: Subcutaneous MIA PaCa-2 pancreatic tumor xenograft therapy study. The class given is in vivo. Particulars: for tumor regrowth after dosing stopped: 15 mg/kg, from day 28 onward. As for the experimental part: To determine if the in vitro activity of CM03 was paralleled in vivo, we explored the activity of CM03 in a mouse xenograft model of PDAC. We have previously reported that the maximum tolerated dosage (MTD) for intravenous (IV) administration of MM41 is 25 mg/kg.[33] CM03 was well tolerated, up to a dosage of 45–50 mg/kg, as judged by a dose-escalation MTD study. A therapeutic schedule of two CM03 intravenous (IV) doses was explored using a subcutaneous MIA PaCa-2 pancreatic tumor xenograft model derived from the human cell line used in the cell growth inhibition studies. A group size of eight CD-1 nude mice was used, and dosing was conducted at 10 and 15 mg/kg, each twice weekly, over a period of 4 weeks (28 days: 8 doses). Two further groups were given either MM41 or gemcitabine at 15 mg/kg and received the same dose regimen. […] IVIS imaging of treated mice was performed by taking account of the intrinsic fluorescence of CM03. […] Thus, in contrast to MM41 and gemcitabine, the higher-dose CM03 treatment results in a statistically significant (p < 0.001) antitumor effect, which persisted long after dosing had ceased, up to the termination of the xenograft experiment (62 days).
For therapy studies, female CD-1 nude mice (2–3 months old, weighing 20–25 g) were injected subcutaneously with 5 × 10^6 MIA PaCa-2 cells in the right flank (unsupplemented RPMI + Matrigel). When the tumors were established (approximately 13 days, mean size 0.05 cm^3), the mice were divided into five treatment groups with eight mice/group. The MM41 and CM03 samples were dissolved directly in saline to the required concentrations and administered IV. Tumor size was measured weekly by calliper using the π-based ellipsoid volume formula (length × width × height × π/6) every 3–4 days, and the mice were also weighed and examined at the same time to determine any signs of toxicity from the drug.
• Group 1:15 mg/kg of gemcitabine (Sigma), twice weekly dose. • Group 2:15 mg/kg of MM41, twice weekly dose. • Group 3:10 mg/kg of CM03, twice weekly dose. • Group 4:15 mg/kg of CM03, twice weekly dose. • Group 5: saline only, twice weekly dose.
The xenograft data was analyzed using Student’s t test (GraphPad Inc.). Responses were considered to be significant for those with probabilities (p) less than 5% (p < 0.05). Mice were culled if there was any sign of tumor ulceration, if tumor volume exceeded 1.5 cm^3, or if a weight loss over 20% of initial body weight was observed. Samples of liver, kidney, and spleen from each animal in the CM03 (15 mg/kg) and untreated control groups were excised at the end of the therapy experiment, then fixed in 10% neutral buffered formalin for at least 48 h prior to processing and paraffin embedding. Tissue slices were stained with hematoxylin and eosin and assessed visually for any obvious differences compared with controls, indicative of toxicity and tissue damage. For the imaging study mice were anesthetized using isoflurane and imaged using the IVIS preclinical imaging system from PerkinElmer. Images were captured after 4 h following intravenous administration of CM03 using Cy5.5 excitation for 5 s.

Setting [1] is: 15 mg/kg IV twice weekly for 28 days.

Regarding `O=C1c2ccc3c4c(c(NCCN5CCCC5)cc(c24)C(=O)N1CCCN1CCOCC1)C(=O)N(CCCN1CCOCC1)C3=O` [CM03, 2,7-bis(3-morpholinopropyl)-4-((2-(pyrrolidin-1-yl)ethyl)amino)benzo[lmn][3,8]phenanthroline-1,3,6,8(2H,7H)-tetraone], the “tumor regrowth after dosing stopped” value is “no tumor regrowth was observed”. Further, for the setting “10 mg/kg IV twice weekly for 28 days”, the “MTV ± SEM (Day 62)” value is on record as 0.29 ± 0.10 cm^3. The “IVIS imaging, accumulation in tumor xenograft” value (10 mg/kg, 4 h after IV administration) is “significant accumulation of CM03 in the tumor xenograft”. Further, under setting [1], the “MTV ± SEM (Day 29)” value is on record as 0.04 ± 0.02 cm^3 and the “MTV ± SEM (Day 62)” value is recorded as 0.09 ± 0.05 cm^3. Also, the “animals with tumor volumes that shrank to <0.05 cm^3 by day 62” value (15 mg/kg cohort) is listed as “Five out of the eight”. In addition, the “body weight and adverse effects” value (15 mg/kg cohort, any time during the study) is listed as “No body weight reduction”. Besides, the “histopathological analysis of vital organs” value (animals sacrificed at the end of the experiments) is on record as “no sign of organ damage”.
On to `Nc1ccn([C@@H]2O[C@H](CO)[C@@H](O)C2(F)F)c(=O)n1` [gemcitabine, reference compound], for which the “tumor regrowth after dosing stopped” value is given as “tumor regrowth being apparent as soon as dosing was stopped”. Under setting [1], the “MTV ± SEM (Day 29)” value worked out at 0.05 ± 0.02 cm^3 and the “MTV ± SEM (Day 62)” value stood at 0.23 ± 0.10 cm^3.
